Consider 35 compounds from US20140249139A1, “Quinazoline Derivatives” (NOVARTIS AG, priority 2011, published 2014).

For one assay, the target named is T1, PI3K alpha (Homo sapiens, UniProt P42336).
T1 construct: for the p110-a subunit (with a deletion of the first 20 amino acids) are generated; His tag (C); made in house; host or cells: baculovirus BV1075; Tn5 (Trichoplusia ni) or TiniPro insect cells
The experiment in a line: Enzymatic PI3K alpha isoform inhibition (lipid kinase activity, Kinase-Glo). In kind it is biochemical. The conditions noted are these: enzymatic assay. The procedure: (§1) The components of the assay are added per well as follows:
(§2) IC50 is determined by a four parameter curve fitting routine that comes along with “excel fit”.
(§3) Yet alternatively, for an ATP depletion assay, compounds of the formula I to be tested are dissolved in DMSO and directly distributed into a white 384-well plate at 0.5 μl per well. To start the reaction, 10 μl of 10 nM PI3 kinase and 5 μg/ml 1-alpha-phosphatidylinositol (PI) are added into each well followed by 10 μl of 2 μM ATP. The reaction is performed until approx 50% of the ATP is depleted, and then stopped by the addition of 20 μl of Kinase-Glo solution (Promega Corp., Madison, Wis., USA). The stopped reaction is incubated for 5 minutes and the remaining ATP is then detected via luminescence. IC50 values are then determined.
A general note: Kinase-Glo reads ATP consumption through a luciferase reaction.

Another assay addresses T2, PI3K delta (Homo sapiens, UniProt O00329).
T2 construct: for the full-length p110-d subunit are generated and fused by overlapping PCR; His tag (C); made in house; host or cells: baculovirus BV1060; Tn5 (Trichoplusia ni) or TiniPro insect cells
The assay is described as follows: Enzymatic PI3K delta isoform inhibition (lipid kinase activity, Kinase-Glo). In kind it is biochemical. The conditions noted are these: enzymatic assay. The procedure:
as §1, §2, §3

Bounds are passed on as bounds.

T2 sequence (O00329 with tags, fused parts or gaps limits assumed, species assumed): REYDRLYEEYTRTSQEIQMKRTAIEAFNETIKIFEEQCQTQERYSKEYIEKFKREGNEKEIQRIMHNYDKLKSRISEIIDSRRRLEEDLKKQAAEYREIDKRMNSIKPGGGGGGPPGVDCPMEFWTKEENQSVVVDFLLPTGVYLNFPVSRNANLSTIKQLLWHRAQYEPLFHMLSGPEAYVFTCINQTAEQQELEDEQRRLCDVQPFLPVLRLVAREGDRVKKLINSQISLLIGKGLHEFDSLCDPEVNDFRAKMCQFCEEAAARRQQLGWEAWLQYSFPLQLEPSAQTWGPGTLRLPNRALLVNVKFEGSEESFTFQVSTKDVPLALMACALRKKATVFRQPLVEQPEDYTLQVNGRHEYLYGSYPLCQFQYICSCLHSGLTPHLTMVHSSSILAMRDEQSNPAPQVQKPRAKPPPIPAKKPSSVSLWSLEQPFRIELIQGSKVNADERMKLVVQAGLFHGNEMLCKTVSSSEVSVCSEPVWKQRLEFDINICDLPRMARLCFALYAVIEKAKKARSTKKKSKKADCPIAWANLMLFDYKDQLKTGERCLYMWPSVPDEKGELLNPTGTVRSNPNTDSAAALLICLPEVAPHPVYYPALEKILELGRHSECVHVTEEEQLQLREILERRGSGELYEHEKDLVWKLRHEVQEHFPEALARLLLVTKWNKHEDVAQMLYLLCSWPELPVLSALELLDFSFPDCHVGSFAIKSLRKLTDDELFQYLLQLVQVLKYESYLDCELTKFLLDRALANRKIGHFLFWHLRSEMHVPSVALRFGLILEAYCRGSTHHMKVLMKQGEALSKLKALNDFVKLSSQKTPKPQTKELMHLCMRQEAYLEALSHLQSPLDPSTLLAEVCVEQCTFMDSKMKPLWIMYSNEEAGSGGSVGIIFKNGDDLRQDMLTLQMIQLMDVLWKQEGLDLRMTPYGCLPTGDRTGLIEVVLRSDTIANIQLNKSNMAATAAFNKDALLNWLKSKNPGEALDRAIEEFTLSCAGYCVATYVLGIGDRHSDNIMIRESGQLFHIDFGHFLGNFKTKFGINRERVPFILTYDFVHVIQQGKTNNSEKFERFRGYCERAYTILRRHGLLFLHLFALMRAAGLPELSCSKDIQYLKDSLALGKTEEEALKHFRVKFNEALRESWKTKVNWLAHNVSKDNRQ
T1 sequence (P42336 with tags, fused parts or gaps limits assumed, species assumed): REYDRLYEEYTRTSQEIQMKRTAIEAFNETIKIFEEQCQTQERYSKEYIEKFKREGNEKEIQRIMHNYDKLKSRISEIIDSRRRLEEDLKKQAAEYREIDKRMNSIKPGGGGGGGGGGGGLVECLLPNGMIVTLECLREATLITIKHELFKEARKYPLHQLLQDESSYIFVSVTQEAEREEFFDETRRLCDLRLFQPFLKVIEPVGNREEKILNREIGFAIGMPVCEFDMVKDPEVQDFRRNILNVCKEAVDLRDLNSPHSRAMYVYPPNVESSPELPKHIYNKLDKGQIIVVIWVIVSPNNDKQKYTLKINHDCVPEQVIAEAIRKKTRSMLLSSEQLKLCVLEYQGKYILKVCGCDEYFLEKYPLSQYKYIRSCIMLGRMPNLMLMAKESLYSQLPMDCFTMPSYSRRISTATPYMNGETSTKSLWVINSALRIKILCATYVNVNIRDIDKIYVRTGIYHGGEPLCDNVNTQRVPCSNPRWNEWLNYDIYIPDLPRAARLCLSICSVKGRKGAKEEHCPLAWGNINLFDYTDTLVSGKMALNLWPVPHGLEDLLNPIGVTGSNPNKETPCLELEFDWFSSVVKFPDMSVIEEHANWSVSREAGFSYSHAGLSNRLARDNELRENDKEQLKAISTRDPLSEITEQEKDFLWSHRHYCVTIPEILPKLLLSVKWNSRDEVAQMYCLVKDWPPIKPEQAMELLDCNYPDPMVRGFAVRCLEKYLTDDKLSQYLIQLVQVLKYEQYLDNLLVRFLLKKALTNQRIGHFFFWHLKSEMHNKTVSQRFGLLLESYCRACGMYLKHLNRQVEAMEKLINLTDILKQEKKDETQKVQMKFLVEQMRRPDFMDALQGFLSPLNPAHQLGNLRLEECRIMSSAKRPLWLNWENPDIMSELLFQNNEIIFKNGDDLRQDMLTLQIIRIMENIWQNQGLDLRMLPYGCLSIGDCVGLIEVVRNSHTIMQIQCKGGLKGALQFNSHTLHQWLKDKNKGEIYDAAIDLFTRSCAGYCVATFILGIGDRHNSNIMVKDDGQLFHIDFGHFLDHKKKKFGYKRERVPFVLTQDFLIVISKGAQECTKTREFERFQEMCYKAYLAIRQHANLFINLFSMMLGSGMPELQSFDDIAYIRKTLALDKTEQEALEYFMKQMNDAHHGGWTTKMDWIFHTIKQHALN

For the compound `CN1CCN(C(=O)c2cccc(-c3ncnc4ccc(-c5ccc(N)nc5)cc34)c2)CC1` [Example 25], the IC50 against PI3K alpha was determined as 184 nM; against PI3K delta, 7 nM.
On to `COc1ccc(-c2ccc3ncnc(-c4cccc(C(=O)N5CCN(C)CC5)c4)c3c2)cc1C#N` [Example 45], for which the results for the IC50 against PI3K alpha and on PI3K delta were 1200 nM and 36.5 nM, respectively.
Turning to `COc1ccc(-c2ccc3ncnc(-c4cccc(C(=O)N5CCN(C)CC5)c4)c3c2)cc1S(=O)(=O)N1CCOCC1` [Example 21], the concentration for half-maximal inhibition (IC50) on PI3K alpha was determined as 2270 nM; against PI3K delta it was 14.5 nM.
Consider `COc1ncc(-c2ccc3ncnc(-c4cc(C(=O)N5CCN(C(C)=O)CC5)cc(C(F)(F)F)c4)c3c2)cn1` [Example 104, 1-(4-{3-[6-(2-Methoxy-pyrimidin-5-yl)-quinazolin-4-yl]-5-trifluoromethyl-benzoyl}-piperazin-1-yl)-ethanone], for which the results for the IC50 against PI3K alpha and on PI3K delta were 3290 nM and 38 nM, respectively.
With `COc1ccc(-c2ccc3ncnc(-c4cccc(C(=O)N5CC(C)NC(C)C5)c4)c3c2)cn1` (stereo not shown) [Example 90, (3,5-Dimethyl-piperazin-1-yl)-{3-[6-(6-methoxy-pyridin-3-yl)-quinazolin-4-yl]-phenyl}-methanone], the IC50 at PI3K alpha was 181 nM; against PI3K delta, 5.75 nM.
In the case of `COc1ccc(-c2ccc3ncnc(-c4cccc(C(=O)N5CCN(C)C[C@@H]5C)c4)c3c2)cn1` [Example 99, ((S)-2,4-Dimethyl-piperazin-1-yl)-{3-[6-(6-methoxy-pyridin-3-yl)-quinazolin-4-yl]-phenyl}-methanone], the IC50 at PI3K alpha amounted to 237 nM; against PI3K delta, 4.5 nM.
The matching figures for `CCC(=O)N1CCN(C(=O)c2cccc(-c3ncnc4ccc(-c5cnc(OC)c(C#N)c5)cc34)c2)CC1` [Example 96, 2-Methoxy-5-{4-[3-(4-propionyl-piperazine-1-carbonyl)-phenyl]-quinazolin-6-yl}-nicotinonitrile]: 316 nM and 6 nM.
Turning to `COc1ncc(-c2ccc3ncnc(-c4cncc(C(=O)N5CCN(C(C)=O)CC5)c4)c3c2)cc1C#N` [Example 53], the IC50 worked out at 472 nM against PI3K alpha and 7 nM against PI3K delta.
With `COc1ncc(-c2ccc3ncnc(-c4ccnc(C(=O)N5CCN(C(C)=O)CC5)c4)c3c2)cc1C#N` [Example 113, 5-{4-[2-(4-Acetyl-piperazine-1-carbonyl)-pyridin-4-yl]-quinazolin-6-yl}-2-methoxy-nicotinonitrile], the IC50 against PI3K alpha came out at 979 nM; at PI3K delta, 18 nM.
`COc1ccc(-c2ccc3ncnc(-c4cc(C)cc(C(=O)N5CCN(C(C)=O)CC5)c4)c3c2)cn1` [Example 108, 1-(4-{3-[6-(6-Methoxy-pyridin-3-yl)-quinazolin-4-yl]-5-methyl-benzoyl}-piperazin-1-yl)-ethanone]: the concentration for half-maximal inhibition (IC50) was 158 nM against PI3K alpha and 7 nM against PI3K delta.
For the compound `COc1ccc(-c2ccc3ncnc(-c4cccc(C(=O)N5CCN(C)C(C)(C)C5)c4)c3c2)cn1` [Example 89, {3-[6-(6-Methoxy-pyridin-3-yl)-quinazolin-4-yl]-phenyl}-(3,3,4-trimethyl-piperazin-1-yl)-methanone], the IC50 against PI3K alpha was 99 nM; against PI3K delta, 4 nM.
`CN1CCN(C(=O)c2cccc(-c3ncnc4ccc(-c5ccc(N6CCCC6)nc5)cc34)c2)CC1` [Example 15]: the IC50 against PI3K alpha is 1230 nM; at PI3K delta, 17 nM.
As to `COc1ncc(-c2ccc3ncnc(-c4cccc(C(=O)N5CCN(C(C)=O)CC5)c4)c3c2)cn1` [Example 4], the IC50 is 1160 nM against PI3K alpha and 9 nM at PI3K delta.
For the compound `COc1ncc(-c2ccc3ncnc(-c4ccnc(C(=O)N5CCN(C(C)=O)CC5)c4)c3c2)cc1C(F)(F)F` [Example 114, 1-(4-{4-[6-(6-Methoxy-5-trifluoromethyl-pyridin-3-yl)-quinazolin-4-yl]-pyridine-2-carbonyl}-piperazin-1-yl)-ethanone], the IC50 on PI3K alpha is 71 nM; at PI3K delta, 3 nM.
With `CN1CCN(C(=O)c2cccc(-c3ncnc4ccc(-c5cncc(S(C)(=O)=O)c5)cc34)c2)CC1` [Example 24], the IC50 on PI3K alpha was 400 nM; against PI3K delta it was 15 nM.
With `CN1CCN(C(=O)c2cccc(-c3ncnc4ccc(-c5ccc(N(C)C)nc5)cc34)c2)CC1` [Example 17], the IC50 against PI3K alpha amounted to 352 nM; on PI3K delta it was 6.38 nM.
As for `COc1ncc(-c2ccc3ncnc(-c4cncc(C(=O)N5CCN(C)C(C)(C)C5)c4)c3c2)cc1F` [Example 73], the results for the half-maximal inhibitory concentration (IC50) against PI3K alpha and on PI3K delta were 60.5 nM and less than 3 nM, respectively.
On to `COc1ccc(-c2ccc3ncnc(-c4cccc(C(=O)N5CCOC(C)(C)C5)c4)c3c2)cn1` [Example 95, (2,2-Dimethyl-morpholin-4-yl)-{3-[6-(6-methoxy-pyridin-3-yl)-quinazolin-4-yl]-phenyl}-methanone], for which the 50% inhibitory concentration (IC50) was 281 nM against PI3K alpha and 9 nM against PI3K delta.
For the compound `COc1ncc(-c2ccc3ncnc(-c4cncc(C(=O)N5CCOCC5)c4)c3c2)cc1C#N` [Example 69], the figures for the half-maximal inhibitory concentration (IC50) against PI3K alpha and on PI3K delta were 880 nM and 8 nM, respectively.
Turning to `COc1ncc(-c2ccc3ncnc(-c4cncc(C(=O)N5CCOC(C)(C)C5)c4)c3c2)cc1C(F)(F)F` [Example 61], the concentration for half-maximal inhibition (IC50) on PI3K alpha is 390 nM; at PI3K delta, 3 nM.
The corresponding values for `COc1ccc(-c2ccc3ncnc(-c4cccc(C(=O)N5CCCN(C)CC5)c4)c3c2)cn1` [Example 92, {3-[6-(6-Methoxy-pyridin-3-yl)-quinazolin-4-yl]-phenyl}-(4-methyl-[1,4]diazepan-1-yl)-methanone] are 196 nM and 3.75 nM.
In the case of `CCOc1ncc(-c2ccc3ncnc(-c4cccc(C(=O)N5CCN(C)CC5)c4)c3c2)cc1C(F)(F)F` [Example 42, {3-[6-(6-Ethoxy-5-trifluoromethyl-pyridin-3-yl)-quinazolin-4-yl]-phenyl}-(4-methyl-piperazin-1-yl)-methanone], the IC50 against PI3K alpha worked out at 152 nM; against PI3K delta, 6 nM.
The corresponding values for `COc1ccc(-c2ccc3ncnc(-c4cncc(C(=O)N5CCN(C)C(C)(C)C5)c4)c3c2)cn1` [Example 78, {5-[6-(6-Methoxy-pyridin-3-yl)-quinazolin-4-yl]-pyridin-3-yl}-(3,3,4-trimethyl-piperazin-1-yl)-methanone] are 123 nM and 4.5 nM.
Consider `CN1CCN(C(=O)c2cccc(-c3ncnc4ccc(-c5ccc(OC(F)F)nc5)cc34)c2)CC1` [Example 13], for which the IC50 on PI3K alpha came to 1330 nM; against PI3K delta, 34 nM.
For the compound `CC1(C)CN(C(=O)c2cccc(-c3ncnc4ccc(-c5ccc(N)nc5)cc34)c2)CCO1` [Example 32], the values for the half-inhibitory concentration (IC50) against PI3K alpha and against PI3K delta were 174 nM and 7 nM, respectively.
As to `COc1ccc(-c2ccc3ncnc(-c4cncc(C(=O)N5CCN(C)CC5)c4)c3c2)cc1C(F)(F)F` [Example 58], the results for the IC50 at PI3K alpha and on PI3K delta were 646 nM and 5.5 nM, respectively.
As for `COc1ccc(-c2ccc3ncnc(-c4cccc(C(=O)N5CCS(=O)(=O)CC5)c4)c3c2)cn1` [Example 93, (1,1-Dioxo-1lambda*6*-thiomorpholin-4-yl)-{3-[6-(6-methoxy-pyridin-3-yl)-quinazolin-4-yl]-phenyl}-methanone], the results for the IC50 on PI3K alpha and at PI3K delta were 120 nM and less than 3 nM, respectively.
Take `COc1ccc(-c2ccc3ncnc(-c4cccc(C(=O)N5CCNC[C@H]5C)c4)c3c2)cn1` [Example 97, {3-[6-(6-Methoxy-pyridin-3-yl)-quinazolin-4-yl]-phenyl}-((R)-2-methyl-piperazin-1-yl)-methanone]: the IC50 against PI3K alpha amounted to 463 nM; against PI3K delta it was 23 nM.
Take `COc1ncc(-c2ccc3ncnc(-c4cncc(C(=O)N5CCS(=O)(=O)CC5)c4)c3c2)cc1C#N` [Example 71]: the IC50 was found to be 550 nM on PI3K alpha and 8 nM against PI3K delta.
Regarding `COc1ccc(-c2ccc3ncnc(-c4cccc(C(=O)N5CCN(C)CC5)c4)c3c2)cc1C(F)(F)F` [Example 20], the IC50 was determined as 2480 nM against PI3K alpha and 24 nM at PI3K delta.
Take `COc1ccc(-c2ccc3ncnc(-c4cccc(C(=O)N5CCNC[C@@H]5C)c4)c3c2)cn1` [Example 98, {3-[6-(6-Methoxy-pyridin-3-yl)-quinazolin-4-yl]-phenyl}-((S)-2-methyl-piperazin-1-yl)-methanone]: the half-maximal inhibitory concentration (IC50) against PI3K alpha came to 102 nM; against PI3K delta it was 3.5 nM.
For `COc1ccc(-c2ccc3ncnc(-c4cccc(C(=O)N5CCN(CC(F)(F)F)CC5)c4)c3c2)cn1` [Example 87, {3-[6-(6-Methoxy-pyridin-3-yl)-quinazolin-4-yl]-phenyl}-[4-(2,2,2-trifluoro-ethyl)-piperazin-1-yl]-methanone], the IC50 at PI3K alpha was 126 nM; at PI3K delta it was less than 3 nM.
For the compound `COc1cc(C(=O)N2CCN(C(C)=O)CC2)cc(-c2ncnc3ccc(-c4ccc(OC)nc4)cc23)c1` [Example 106, 1-(4-{3-Methoxy-5-[6-(6-methoxy-pyridin-3-yl)-quinazolin-4-yl]-benzoyl}-piperazin-1-yl)-ethanone], the IC50 at PI3K alpha turned out to be 440 nM; against PI3K delta, 5 nM.
With `COc1ncc(-c2ccc3ncnc(-c4cncc(C(=O)N5CCOCC5)c4)c3c2)cn1` [Example 70], the IC50 was found to be 1030 nM on PI3K alpha and 30 nM on PI3K delta.
Turning to `CN1CCN(C(=O)c2cccc(-c3ncnc4ccc(-c5ccc(NS(C)(=O)=O)c(C(F)(F)F)c5)cc34)c2)CC1` [Example 48], the IC50 against PI3K alpha was 3800 nM; at PI3K delta it was 47.5 nM.

Usually IC50 stands for the concentration needed to halve the response being measured.
